Type in all cases: cell-based
One experiment relates to Clostridium ljungdahlii. As to the kind of experiment: Formation of acetic acid and ethanol from synthesis gas with Clostridium ljungdahlii and refeeding of cysteine. Here is the method:
For the biotransformation of hydrogen and carbon dioxide to acetic acid and ethanol the homoacetogenic bacterium Clostridium ljungdahlii was cultivated on synthesis gas with refeeding of cysteine. All cultivation steps were carried out under anaerobic conditions in pressure-resistant glass bottles that can be closed airtight with a butyl rubber stopper.
The chemolithoautotrophic cultivation was carried out in a 1 L pressure-resistant glass bottle at 37° C., 100 rpm and a ventilation rate of 3 L/h with a premixed gas with 67% H2, 33% CO2 in an open water bath shaker for 69 h till OD600nm>0.4. The gas was discharged into the medium through a sparger with a pore size of 10 μm, which was mounted in the center of the reactors. Then the cell suspension was centrifuged and the cell pellet was resuspended in fresh CGF1 Medium.
For the production phase, as many washed cells from the preculture of C. ljungdahlii as necessary for an OD600nm of 0.2 were added to 100 ml mineral medium (CGF1 medium, pH 6.5, 1.4 g/L KOH, 2 g/L (NH4)2SO4, 1 g/L KH2PO4, 1 g/L K2HPO4, 10 mg/L FeSO4×7H2O, 3.8 mg/L MnSO4×1H2O, 246 mg/L MgSO4×7H2O, aerated for 30 min with a premixed gas with 67% H2 and 33% CO2). […] The cultivation was carried out in 500 mL pressure-resistant glass bottles at 37° C., 150 rpm in an open water bath shaker for 163 h which were aerated to an overpressure of 0.8 bar with a premixed gas with 67% H2, 33% CO2 one time a day. The pH was hold >5.0 by intermittent additions of a 140 g/L KOH solution. During the cultivation several 5 mL samples were taken to determinate OD600nm, pH und product formation. […] The determination of the product concentrations was performed by semiquantitative 1H-NMR spectroscopy. As an internal quantification standard sodium trimethylsilylpropionate (T (M) SP) was used.

The subject of experiment [1] is Clostridium autoethanogenum together with Clostridium kluyveri in a co-culture. As to the kind of experiment: Continuous co-culture of Clostridium autoethanogenum and Clostridium kluyveri with high potassium thioacetate concentration. Here is the method:
(§1) The homoacetogenic bacterium Clostridium autoethanogenum was cultivated together with the chain elongating bacterium Clostridium kluyveri in a co-culture on synthesis gas in a mineral medium with potassium thioacetate as reduced sulfur source. The cultivation was carried out under anaerobic conditions in a pressure-resistant stainless steel bubble column loop reactor.
(§2) The cultivation was run at 37° C. and an overpressure of 2 bar as a continuous fermentation with continuous feeding of 300 L/h of a mixture of water, substrates, salts, trace elements and vitamins. The pH was automatically hold at 5.80 with ammonia feeding. The outlet stream of 300 L/h out of the fermenter was for 98.2% as permeate with cell retention and for 1.8% as purge without cell retention.
(§3) The culture was previously inoculated with cells from fresh cultures of C. autoethanogenum and C. kluyveri and was already running since >13.000 h full continuously as stable coculture at an optical density (OD600nm) of ˜ 11.8. Fresh medium was continuously fed into the reactor and fermentation broth continuously removed from the reactor with a dilution rate of 2.8 d^−1. During cultivation several 5 mL samples were taken to determinate OD600nm, PH und product formation. The determination of the product concentrations was performed by semiquantitative 1H-NMR spectroscopy. As an internal quantification standard sodium trimethylsilylpropionate (T (M) SP) was used.

For experiment [2] the test system is unchanged. Briefly: Continuous co-culture of Clostridium autoethanogenum and Clostridium kluyveri with low potassium thioacetate concentration. As to the method:
as §1, §2
as §3, with “>10.000” for “>13.000”, “9.0.” for “11.8.”

The mark [3] stands for this setting: culture C (refed with L-cysteine-hydrochloride) versus cultures A and B, production phase.
Setting [4] is: 10.69 mg/L potassium thioacetate in media feed (before increase).
Where [5] appears, read: 50 h, 100 h and 150 h after increasing potassium thioacetate in media feed to 300% (32.07 mg/L).
Where [6] appears, read: 10.69 mg/L potassium thioacetate in media feed (before decrease).
The mark [7] stands for this setting: 50 h after decreasing potassium thioacetate in media feed to 10% (1.69 mg/L).

Experimental findings from patent US20250115864A1, “A FERMENTATION MEDIUM COMPRISING SULPHUR” (Evonik Operations GmbH, priority 2021, published 2025) are described below.

Regarding `Cl.N[C@@H](CS)C(=O)O` [L-cysteine, L-cysteine-hydrochloride], the “OD(600 nm)” value with Clostridium ljungdahlii (culture A, initial 400 mg/L L-cysteine-hydrochloride, no refeed, 0 h) amounted to 0.206; with Clostridium ljungdahlii (culture A, initial 400 mg/L L-cysteine-hydrochloride, no refeed, 18.75 h) it was 0.232; with Clostridium ljungdahlii (culture A, initial 400 mg/L L-cysteine-hydrochloride, no refeed, 41.5 h), 0.293; in the experiment on Clostridium ljungdahlii (culture A, initial 400 mg/L L-cysteine-hydrochloride, no refeed, 46.75 h), 0.281; with Clostridium ljungdahlii (culture A, initial 400 mg/L L-cysteine-hydrochloride, no refeed, 65.5 h) it was 0.324; in the experiment on Clostridium ljungdahlii (culture A, initial 400 mg/L L-cysteine-hydrochloride, no refeed, 69.5 h), 0.366. Moreover, the “OD(600 nm)” value with Clostridium ljungdahlii (culture A, initial 400 mg/L L-cysteine-hydrochloride, no refeed, 89.75 h) worked out at 0.324; with Clostridium ljungdahlii (culture A, initial 400 mg/L L-cysteine-hydrochloride, no refeed, 163.5 h) it was 0.339; with Clostridium ljungdahlii (culture B, initial 200 mg/L L-cysteine-hydrochloride, no refeed, 0 h) it was 0.197; in the experiment on Clostridium ljungdahlii (culture B, initial 200 mg/L L-cysteine-hydrochloride, no refeed, 18.75 h) it was 0.261; in the experiment on Clostridium ljungdahlii (culture B, initial 200 mg/L L-cysteine-hydrochloride, no refeed, 41.5 h) it was 0.279; in the experiment on Clostridium ljungdahlii (culture B, initial 200 mg/L L-cysteine-hydrochloride, no refeed, 46.75 h), 0.269. Also, the “OD(600 nm)” value is on record as 0.271 with Clostridium ljungdahlii (culture B, initial 200 mg/L L-cysteine-hydrochloride, no refeed, 65.5 h); 0.259 with Clostridium ljungdahlii (culture B, initial 200 mg/L L-cysteine-hydrochloride, no refeed, 69.5 h); 0.241 in the experiment with Clostridium ljungdahlii (culture B, initial 200 mg/L L-cysteine-hydrochloride, no refeed, 89.75 h); 0.237 in the experiment on Clostridium ljungdahlii (culture B, initial 200 mg/L L-cysteine-hydrochloride, no refeed, 163.5 h); 0.209 with Clostridium ljungdahlii (culture C, initial 200 mg/L L-cysteine-hydrochloride, refed 200 mg/L after 18, 41, 65, 89 h, 0 h); 0.245 with Clostridium ljungdahlii (culture C, initial 200 mg/L L-cysteine-hydrochloride, refed 200 mg/L after 18, 41, 65, 89 h, 18.75 h). Moreover, the “OD(600 nm)” value is 0.339 in the experiment on Clostridium ljungdahlii (culture C, initial 200 mg/L L-cysteine-hydrochloride, refed 200 mg/L after 18, 41, 65, 89 h, 41.5 h); 0.335 in the experiment with Clostridium ljungdahlii (culture C, initial 200 mg/L L-cysteine-hydrochloride, refed 200 mg/L after 18, 41, 65, 89 h, 46.75 h); 0.399 in the experiment with Clostridium ljungdahlii (culture C, initial 200 mg/L L-cysteine-hydrochloride, refed 200 mg/L after 18, 41, 65, 89 h, 65.5 h); 0.392 in the experiment on Clostridium ljungdahlii (culture C, initial 200 mg/L L-cysteine-hydrochloride, refed 200 mg/L after 18, 41, 65, 89 h, 69.5 h); 0.431 in the experiment with Clostridium ljungdahlii (culture C, initial 200 mg/L L-cysteine-hydrochloride, refed 200 mg/L after 18, 41, 65, 89 h, 89.75 h); 0.434 with Clostridium ljungdahlii (culture C, initial 200 mg/L L-cysteine-hydrochloride, refed 200 mg/L after 18, 41, 65, 89 h, 95.5 h). In addition, in the experiment with Clostridium ljungdahlii (culture C, initial 200 mg/L L-cysteine-hydrochloride, refed 200 mg/L after 18, 41, 65, 89 h, 163.5 h), the “OD(600 nm)” value came out at 0.481. Also, the cell growth entry in the experiment with Clostridium ljungdahlii (setting [3]) was “stronger cell growth than cultures A and B”. In the experiment on Clostridium ljungdahlii (setting [3]), the “concentrations of acetate and ethanol” value was “increased more than in culture A and B”.

Regarding `CC(=O)[S-].[K+]` [potassium thioacetate], in experiment [1] (setting [4]), the “steady state concentration acetate” value is reported as around 1.10 g/L, the “steady state concentration butyrate” value is listed as around 1.08 g/L, the “steady state concentration ethanol” value is reported as “about 2.67 g/L” and the “steady state concentration hexanoate” value is listed as around 3.75 g/L. The “optical density (OD600nm)” value in experiment [1] (10.69 mg/L potassium thioacetate in media feed (before increase), stable coculture) was around 11.8. For the same molecule, in experiment [1] (setting [5]), the CO2 turnover was 70%; the OD(600 nm) was determined as 11.80; the “steady state concentrations of the educts and products” value was “stayed on the same level”. Besides, in experiment [2] (setting [6]), the CO2 turnover turned out to be 70%, the OD(600 nm) was 9.0, the “steady state concentration acetate” value was around 0.90 g/L and the “steady state concentration butyrate” value is around 0.91 g/L. In experiment [2] (setting [6]), the “steady state concentration ethanol” value is given as “about 3.27 g/L” and the “steady state concentration hexanoate” value is recorded as around 3.61 g/L. Moreover, in experiment [2] (setting [7]), the CO2 turnover is given as 50%, the OD(600 nm) is given as 7.60, the ethanol concentration came out at 4.37 g/L and the “steady state concentration acetate” value came to 0.50 g/L. For the same molecule, in experiment [2] (setting [7]), the “steady state concentration butyrate” value was found to be 0.53 g/L and the “steady state concentration hexanoate” value is given as 2.41 g/L.
